# Experimental data reported in ChEMBL document CHEMBL1201862, “PubChem BioAssay data set” (2004).
# Active and inactive are the calls of the source.
# Legend:
# [1] = molecular target: Voltage-dependent T-type calcium channel subunit alpha-1H (Homo sapiens, UniProt O95180); type: functional;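 also: channel activity triggered by adding a high calcium stimulation buffer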
# [2] = molecular target: T1, Polyadenylate-binding protein 1 (Homo sapiens, UniProt P11940); test: PABP1 MLLE–PAM2 interaction inhibitors, dose response, miRNA deadenylation inhibitor project, biochemical, fluorescence polarization, Cy5-PAM2 peptide, secondary (AID 602260); type: functional; settings: read-out: IC50_Mean
# T1 sequence (P11940 whole entry): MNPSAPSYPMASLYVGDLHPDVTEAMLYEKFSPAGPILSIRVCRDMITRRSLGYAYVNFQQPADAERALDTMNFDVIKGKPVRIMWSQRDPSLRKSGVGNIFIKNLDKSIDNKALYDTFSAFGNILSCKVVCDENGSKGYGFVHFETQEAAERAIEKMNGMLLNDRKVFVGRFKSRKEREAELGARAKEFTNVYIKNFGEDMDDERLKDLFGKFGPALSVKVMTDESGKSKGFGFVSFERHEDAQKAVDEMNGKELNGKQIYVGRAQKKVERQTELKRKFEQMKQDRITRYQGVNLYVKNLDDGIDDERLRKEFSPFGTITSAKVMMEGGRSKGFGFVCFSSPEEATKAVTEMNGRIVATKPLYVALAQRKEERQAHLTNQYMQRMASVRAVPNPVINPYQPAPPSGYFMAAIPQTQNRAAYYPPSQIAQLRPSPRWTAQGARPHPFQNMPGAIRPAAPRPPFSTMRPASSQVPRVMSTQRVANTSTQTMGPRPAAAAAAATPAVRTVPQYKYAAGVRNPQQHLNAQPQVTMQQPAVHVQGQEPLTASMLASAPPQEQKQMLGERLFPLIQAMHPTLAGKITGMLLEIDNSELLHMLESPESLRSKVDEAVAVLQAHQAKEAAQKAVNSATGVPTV
# [3] = molecular target: T1, Polyadenylate-binding protein 1; test: PABP1 MLLE–PAM2 binding inhibitor potency, dose response, biochemical, fluorescence polarization, FITC-PAM2 peptide (AID 602259); type: functional; settings: read-out: IC50_Mean
# Leucine aminopeptidase = molecular target: T2, Leucine aminopeptidase (Plasmodium falciparum 3D7, UniProt Q8IL11); test: P. falciparum M17LAP inhibitors, primary screen, biochemical, fluorogenic H-Leu-NHMec substrate, 1536-well (AID 1619); type: functional
# T2 sequence (Q8IL11 whole entry): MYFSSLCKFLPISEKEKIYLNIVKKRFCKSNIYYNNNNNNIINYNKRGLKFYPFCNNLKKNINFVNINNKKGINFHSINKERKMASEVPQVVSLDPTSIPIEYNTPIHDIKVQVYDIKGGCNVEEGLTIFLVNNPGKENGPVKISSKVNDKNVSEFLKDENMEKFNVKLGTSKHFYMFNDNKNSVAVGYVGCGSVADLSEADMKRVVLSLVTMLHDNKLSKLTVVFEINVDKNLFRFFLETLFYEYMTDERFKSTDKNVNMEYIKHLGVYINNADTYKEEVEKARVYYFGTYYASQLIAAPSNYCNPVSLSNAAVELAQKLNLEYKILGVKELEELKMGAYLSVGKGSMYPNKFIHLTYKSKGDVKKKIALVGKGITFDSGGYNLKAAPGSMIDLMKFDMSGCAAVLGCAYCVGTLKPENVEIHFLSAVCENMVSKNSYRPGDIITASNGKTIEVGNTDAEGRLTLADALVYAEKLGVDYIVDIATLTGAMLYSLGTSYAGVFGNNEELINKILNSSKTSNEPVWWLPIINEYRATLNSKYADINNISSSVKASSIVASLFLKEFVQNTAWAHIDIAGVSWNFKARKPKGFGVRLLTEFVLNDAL
# Large T antigen = Large T antigen (Simian virus 40, UniProt P03070); type: functional, Betapolyomavirus macacae;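 also: Confirmatory-stage PubChem screen for compounds that inhibit SV40 T antigen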
# Large T antigen, sequence (P03070 whole entry): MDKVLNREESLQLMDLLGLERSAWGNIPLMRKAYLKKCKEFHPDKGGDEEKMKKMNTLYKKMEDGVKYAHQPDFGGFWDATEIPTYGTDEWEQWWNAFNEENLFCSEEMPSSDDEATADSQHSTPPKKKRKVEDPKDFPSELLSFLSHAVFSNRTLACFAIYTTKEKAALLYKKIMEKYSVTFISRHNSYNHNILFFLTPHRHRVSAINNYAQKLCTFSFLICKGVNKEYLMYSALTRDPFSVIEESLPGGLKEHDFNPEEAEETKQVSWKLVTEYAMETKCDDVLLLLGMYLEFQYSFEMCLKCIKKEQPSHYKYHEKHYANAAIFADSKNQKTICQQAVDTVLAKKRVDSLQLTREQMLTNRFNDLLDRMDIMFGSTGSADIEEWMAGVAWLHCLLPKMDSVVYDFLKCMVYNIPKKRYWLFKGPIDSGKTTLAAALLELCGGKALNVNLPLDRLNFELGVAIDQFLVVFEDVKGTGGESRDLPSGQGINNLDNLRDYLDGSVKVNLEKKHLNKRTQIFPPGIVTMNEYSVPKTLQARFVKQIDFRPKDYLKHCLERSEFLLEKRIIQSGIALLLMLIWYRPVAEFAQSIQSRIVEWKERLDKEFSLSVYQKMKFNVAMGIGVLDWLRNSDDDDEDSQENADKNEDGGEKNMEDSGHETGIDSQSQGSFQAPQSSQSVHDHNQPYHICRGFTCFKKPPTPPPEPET
# Genome polyprotein = Genome polyprotein (dengue virus type 2, UniProt P29990); test: Dengue-2 NS5 methyltransferase inhibitors, primary screen, biochemical, confirmation dose response (AID 588689); type: functional
# Genome polyprotein, sequence (P29990 2492-3391 limits assumed): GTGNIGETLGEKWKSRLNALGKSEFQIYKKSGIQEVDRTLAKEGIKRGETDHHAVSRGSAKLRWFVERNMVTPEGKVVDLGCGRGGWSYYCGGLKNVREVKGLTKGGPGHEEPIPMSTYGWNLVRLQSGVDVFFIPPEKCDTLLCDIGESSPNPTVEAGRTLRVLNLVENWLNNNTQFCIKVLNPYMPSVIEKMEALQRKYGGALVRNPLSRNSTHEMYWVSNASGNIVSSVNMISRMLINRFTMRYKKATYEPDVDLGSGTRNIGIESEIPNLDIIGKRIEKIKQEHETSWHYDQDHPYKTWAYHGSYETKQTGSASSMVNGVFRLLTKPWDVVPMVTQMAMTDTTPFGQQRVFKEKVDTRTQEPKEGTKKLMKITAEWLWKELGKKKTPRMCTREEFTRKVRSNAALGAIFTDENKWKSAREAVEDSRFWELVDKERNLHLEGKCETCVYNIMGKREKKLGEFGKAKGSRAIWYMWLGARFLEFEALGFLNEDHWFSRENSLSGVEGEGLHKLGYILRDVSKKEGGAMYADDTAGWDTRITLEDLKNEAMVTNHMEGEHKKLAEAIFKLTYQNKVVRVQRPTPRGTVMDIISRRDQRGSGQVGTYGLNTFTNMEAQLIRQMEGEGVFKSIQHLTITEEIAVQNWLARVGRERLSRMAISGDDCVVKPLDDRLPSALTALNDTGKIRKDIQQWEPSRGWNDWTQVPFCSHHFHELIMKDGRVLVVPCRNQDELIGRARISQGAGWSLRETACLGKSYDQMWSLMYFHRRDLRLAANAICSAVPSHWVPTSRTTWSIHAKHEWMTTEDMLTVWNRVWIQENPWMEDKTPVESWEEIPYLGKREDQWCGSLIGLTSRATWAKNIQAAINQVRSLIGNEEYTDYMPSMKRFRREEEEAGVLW
# [4] = molecular target: FAD-linked sulfhydryl oxidase ALR (Homo sapiens, UniProt P55789); test: inhibitors of human ALR sulfhydryl oxidase, dose response, biochemical, H2O2 detection, luminescence, cherry-pick (AID 493248)
# FAD-linked sulfhydryl oxidase ALR, sequence (P55789 whole entry): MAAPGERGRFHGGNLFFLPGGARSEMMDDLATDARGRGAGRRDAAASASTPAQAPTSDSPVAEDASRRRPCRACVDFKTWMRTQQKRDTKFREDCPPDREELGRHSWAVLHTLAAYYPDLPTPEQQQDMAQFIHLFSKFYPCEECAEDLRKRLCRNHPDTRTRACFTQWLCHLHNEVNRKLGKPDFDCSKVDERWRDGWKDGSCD
# Cytochrome P450 3A4 = Cytochrome P450 3A4 (Homo sapiens, UniProt P08684);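 also: CYP3A4 tested as one member of a cytochrome P450 panel screen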
# Cytochrome P450 2C19 = Cytochrome P450 2C19 (Homo sapiens, UniProt P33261); test: Cytochrome panel assay with activity outcomes. Panel member name: p450-cyp2c19 Compounds with AC50 equal or less than 10 uM are considered active; type: functional; settings: read-out: AC50
# [5] = inhibitors of intracellular T. cruzi replication, confirmation, NIH3T3 host cells, beta-gal luminescence (AID 2044); type: functional, cell-based;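 also: intracellular parasites grown in NIH/3T3 mouse fibroblasts as host cells; luminescent beta-galactosidase reporter signal from transgenic T. cruzi replicating inside host cells; inhibitors lower the luminescence signal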
# [6] = cytotoxicity toward NIH3T3 fibroblasts, dose response, counter-screen, cell-based, ATP luminescence, mouse fibroblasts (AID 2010); type: functional;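 also: cells exposed to compound for about 90 hours before reading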
# Protein RecA = molecular target: T3, Protein RecA (Mycobacterium tuberculosis, UniProt P9WHJ3); test: Fluorescence Cell-Free Homogeneous Dose Retest to Identify Inhibitors of RecA-Intein Splicing Activity. [Related pubchem assays (depositor defined):AID2097, AID2223, AID489010, AID492950]; type: functional
# T3 sequence (P9WHJ3 whole entry): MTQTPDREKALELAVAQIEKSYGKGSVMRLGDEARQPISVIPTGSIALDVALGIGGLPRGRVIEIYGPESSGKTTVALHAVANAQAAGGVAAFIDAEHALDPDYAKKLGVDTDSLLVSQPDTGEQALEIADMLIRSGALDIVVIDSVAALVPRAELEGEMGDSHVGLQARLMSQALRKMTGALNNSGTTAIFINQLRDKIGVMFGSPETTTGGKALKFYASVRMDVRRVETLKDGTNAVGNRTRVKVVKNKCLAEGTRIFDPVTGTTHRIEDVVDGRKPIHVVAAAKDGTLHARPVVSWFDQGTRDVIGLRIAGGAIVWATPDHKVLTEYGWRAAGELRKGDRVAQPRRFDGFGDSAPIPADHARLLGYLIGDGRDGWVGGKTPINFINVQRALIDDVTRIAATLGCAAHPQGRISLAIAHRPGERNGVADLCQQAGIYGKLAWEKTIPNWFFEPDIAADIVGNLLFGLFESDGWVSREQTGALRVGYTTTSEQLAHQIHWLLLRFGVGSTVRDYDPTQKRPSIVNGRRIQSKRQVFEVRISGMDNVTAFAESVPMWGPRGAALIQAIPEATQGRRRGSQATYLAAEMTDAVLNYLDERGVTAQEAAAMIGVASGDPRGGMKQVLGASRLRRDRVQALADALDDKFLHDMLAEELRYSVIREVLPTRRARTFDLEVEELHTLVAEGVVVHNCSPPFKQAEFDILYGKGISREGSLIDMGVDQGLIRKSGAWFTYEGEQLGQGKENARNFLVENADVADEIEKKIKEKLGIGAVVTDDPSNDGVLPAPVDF
# [7] = molecular target: T4, Replicative DNA helicase DnaB (Mycobacterium tuberculosis, UniProt P9WMR3); test: DnaB intein splicing inhibitors, dose response, biochemical, cell-free fluorescence (AID 449749); type: functional
# T4 sequence (P9WMR3 whole entry): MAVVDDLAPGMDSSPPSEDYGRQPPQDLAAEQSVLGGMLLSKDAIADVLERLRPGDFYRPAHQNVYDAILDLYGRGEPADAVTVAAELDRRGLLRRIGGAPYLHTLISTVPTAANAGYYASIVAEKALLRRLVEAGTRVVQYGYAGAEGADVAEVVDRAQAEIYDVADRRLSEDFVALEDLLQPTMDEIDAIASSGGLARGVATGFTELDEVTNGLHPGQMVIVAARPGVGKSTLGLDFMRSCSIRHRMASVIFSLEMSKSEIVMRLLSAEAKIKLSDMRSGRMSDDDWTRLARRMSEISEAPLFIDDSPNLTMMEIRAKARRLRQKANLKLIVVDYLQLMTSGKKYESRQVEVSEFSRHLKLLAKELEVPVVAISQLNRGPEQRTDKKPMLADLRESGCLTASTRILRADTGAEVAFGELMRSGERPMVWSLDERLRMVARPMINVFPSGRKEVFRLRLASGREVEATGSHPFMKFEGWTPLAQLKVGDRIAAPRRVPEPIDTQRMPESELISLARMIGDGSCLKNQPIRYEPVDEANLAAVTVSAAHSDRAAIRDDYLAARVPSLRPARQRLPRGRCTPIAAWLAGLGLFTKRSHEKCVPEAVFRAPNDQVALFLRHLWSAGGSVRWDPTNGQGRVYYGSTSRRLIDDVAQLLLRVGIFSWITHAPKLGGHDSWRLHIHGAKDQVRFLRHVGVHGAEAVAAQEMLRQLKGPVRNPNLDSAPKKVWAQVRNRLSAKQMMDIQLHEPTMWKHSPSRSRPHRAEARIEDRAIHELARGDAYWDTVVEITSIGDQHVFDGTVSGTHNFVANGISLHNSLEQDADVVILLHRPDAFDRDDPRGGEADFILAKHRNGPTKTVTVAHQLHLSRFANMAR
# P388/ADR = test: cells; type: functional; settings: Mus musculus
# SN12K1 = test: cells; type: functional; settings: Homo sapiens
# P388 = test: cells; type: functional; settings: Mus musculus
# Voltage-dependent T-type calcium channel subunit alpha-1H, sequence (O95180 whole entry): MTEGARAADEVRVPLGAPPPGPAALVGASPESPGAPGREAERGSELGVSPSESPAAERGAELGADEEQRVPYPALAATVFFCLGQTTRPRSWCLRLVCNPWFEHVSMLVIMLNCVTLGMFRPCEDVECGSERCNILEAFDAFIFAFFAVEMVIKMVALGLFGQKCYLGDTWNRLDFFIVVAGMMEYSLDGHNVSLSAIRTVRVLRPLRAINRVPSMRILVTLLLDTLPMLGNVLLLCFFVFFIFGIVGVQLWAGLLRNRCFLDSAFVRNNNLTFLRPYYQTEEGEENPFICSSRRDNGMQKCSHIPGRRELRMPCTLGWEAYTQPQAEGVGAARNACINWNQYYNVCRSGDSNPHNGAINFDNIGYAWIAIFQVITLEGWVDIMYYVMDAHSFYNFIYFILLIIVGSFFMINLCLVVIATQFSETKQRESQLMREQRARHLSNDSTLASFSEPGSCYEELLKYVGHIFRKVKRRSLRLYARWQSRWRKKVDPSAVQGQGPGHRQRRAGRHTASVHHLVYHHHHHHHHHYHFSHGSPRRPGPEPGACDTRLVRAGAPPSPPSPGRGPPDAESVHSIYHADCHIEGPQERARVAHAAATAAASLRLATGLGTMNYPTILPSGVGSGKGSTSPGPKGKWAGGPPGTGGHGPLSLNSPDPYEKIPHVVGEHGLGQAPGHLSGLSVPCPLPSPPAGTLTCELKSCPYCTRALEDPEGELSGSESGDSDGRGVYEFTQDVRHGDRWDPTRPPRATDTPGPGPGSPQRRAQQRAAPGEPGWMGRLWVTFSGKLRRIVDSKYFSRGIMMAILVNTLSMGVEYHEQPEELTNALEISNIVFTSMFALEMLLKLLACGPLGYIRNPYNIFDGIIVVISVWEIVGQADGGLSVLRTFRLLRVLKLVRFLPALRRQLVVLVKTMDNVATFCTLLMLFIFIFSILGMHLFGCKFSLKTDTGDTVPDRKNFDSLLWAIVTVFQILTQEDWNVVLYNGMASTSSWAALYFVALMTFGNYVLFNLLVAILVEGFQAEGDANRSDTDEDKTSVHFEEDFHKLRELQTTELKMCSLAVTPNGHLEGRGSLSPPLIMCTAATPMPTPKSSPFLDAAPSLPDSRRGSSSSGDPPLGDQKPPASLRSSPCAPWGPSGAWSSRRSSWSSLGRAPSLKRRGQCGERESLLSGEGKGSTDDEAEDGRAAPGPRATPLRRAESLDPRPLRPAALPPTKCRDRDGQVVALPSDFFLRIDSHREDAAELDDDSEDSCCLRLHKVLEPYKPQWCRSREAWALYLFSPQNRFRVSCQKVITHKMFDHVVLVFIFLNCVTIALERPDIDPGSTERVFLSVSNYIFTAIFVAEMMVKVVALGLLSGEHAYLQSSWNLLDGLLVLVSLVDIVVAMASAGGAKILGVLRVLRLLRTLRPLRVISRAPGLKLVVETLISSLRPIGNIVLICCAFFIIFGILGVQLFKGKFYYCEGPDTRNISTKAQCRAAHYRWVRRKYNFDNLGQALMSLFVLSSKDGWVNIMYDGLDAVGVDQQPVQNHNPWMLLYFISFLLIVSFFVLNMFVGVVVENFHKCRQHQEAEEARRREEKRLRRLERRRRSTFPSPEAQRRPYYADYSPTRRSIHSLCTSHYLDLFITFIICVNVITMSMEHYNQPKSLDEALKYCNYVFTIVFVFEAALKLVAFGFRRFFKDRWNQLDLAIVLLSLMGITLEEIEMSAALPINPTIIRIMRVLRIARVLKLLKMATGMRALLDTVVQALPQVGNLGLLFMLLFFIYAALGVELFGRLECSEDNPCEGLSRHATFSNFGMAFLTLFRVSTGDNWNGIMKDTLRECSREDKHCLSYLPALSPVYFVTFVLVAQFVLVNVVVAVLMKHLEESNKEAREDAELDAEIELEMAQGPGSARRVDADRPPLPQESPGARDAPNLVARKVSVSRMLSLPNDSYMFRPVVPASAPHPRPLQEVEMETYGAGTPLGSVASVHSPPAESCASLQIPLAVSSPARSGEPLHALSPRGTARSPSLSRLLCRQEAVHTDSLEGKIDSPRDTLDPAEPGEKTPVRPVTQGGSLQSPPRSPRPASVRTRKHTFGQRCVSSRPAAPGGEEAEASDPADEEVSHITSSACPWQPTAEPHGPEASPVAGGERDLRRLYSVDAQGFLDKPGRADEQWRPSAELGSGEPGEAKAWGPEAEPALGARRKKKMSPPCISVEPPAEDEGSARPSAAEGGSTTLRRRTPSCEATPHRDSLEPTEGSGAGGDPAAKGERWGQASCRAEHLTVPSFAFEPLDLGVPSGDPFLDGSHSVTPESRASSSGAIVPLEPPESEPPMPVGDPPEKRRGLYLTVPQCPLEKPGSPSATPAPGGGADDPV
smiles,measurement,setting,value
CCC(=O)C1=C(NCCc2c(C)[nH]c3ccc(C)cc23)CC(c2ccccc2)CC1=O (stereo not drawn),EC50,[1],798 µM (active)
COc1ccccc1-n1c(N)c(C(N)=O)sc1=S,IC50,[2],> 66 µM (inactive)
same,IC50,[3],> 66 µM (inactive)
NC(=O)c1c(NC(=O)C2CCCO2)sc2c1CCCCC2 (stereo not drawn),IC50,Leucine aminopeptidase,58.7 µM (active)
same,IC50,[2],> 66 µM (inactive)
same,IC50,[3],> 66 µM (inactive)
COc1ccccc1N1CCN(CC(O)COc2ccc3c(c2)CCC3)CC1 (stereo not drawn),EC50,[1],5.92 µM (active)
CC(=O)Nc1c(O)nc(SCC(=O)Nc2sc3c(c2C#N)CCCCCC3)nc1O,IC50,Leucine aminopeptidase,27.9 µM (active)
CCOC(=O)CSC(C)C(=O)Nc1nnc(C(C)C)s1 (stereo not drawn),IC50,Leucine aminopeptidase,37.7 µM (active)
Cc1[nH]c2ccccc2c1Cc1nnc(SCc2ccccc2)o1,EC50,[1],3.55 µM (active)
C[C@H](NS(=O)(=O)c1ccc2c(c1)OCCCO2)C(=O)N1CCN(c2ccc(F)cc2)CC1,IC50,[2],> 66 µM (inactive)
same,IC50,[3],> 66 µM (inactive)
COC(=O)C1=C(O)/C(=C/c2cccc(OC)c2O)N=C1C,IC50,Large T antigen,14.8 µM (active)
COc1ccc(-c2c[nH]nc2N)cc1,IC50,Leucine aminopeptidase,60.8 µM (active)
CCN(CC)S(=O)(=O)c1ccc(N2CCOCC2)c(NC(=O)CCC2CCCCC2)c1,IC50,[2],> 66 µM (inactive)
same,IC50,[3],> 66 µM (inactive)
Cc1cc([N+](=O)[O-])ccc1N1C(=O)c2ccc(C(=O)Nc3ccccc3C(=O)O)cc2C1=O,IC50,Genome polyprotein,67.9 µM (active)
same,AC50,[4],57 µM (active)
Cc1ccc(NC(=O)CN(C)C(=O)CSc2n[nH]c(N)n2)cc1,AC50,Cytochrome P450 3A4,31.6 µM (inconclusive)
same,IC50,Leucine aminopeptidase,44.7 µM (active)
same,AC50,Cytochrome P450 2C19,0.0355 µM (inconclusive)
COC(=O)c1cccc(NC(=O)Cn2cnc3ccccc3c2=O)c1,IC50,Leucine aminopeptidase,43.5 µM (active)
O=C(c1ccc(Cl)c(Cl)c1)N1CCC(=O)N(C(COCc2ccccc2)Cc2ccccc2)CC1 (stereo not drawn),EC50,[1],2.88 µM (active)
Cc1ccsc1/C=C1/C(=O)NN(c2ccccc2)C1=O,IC50,Large T antigen,28.1 µM (active)
COc1ccccc1NS(=O)(=O)c1cc(NC(=O)Nc2cccc(C)c2)ccc1N1CCCCC1,EC50,[5],2.16 µM (active)
same,IC50,[2],> 66 µM (inactive)
same,IC50,[3],> 66 µM (inactive)
same,EC50,[6],> 60 µM (not active)
CC(=O)Nc1ccc(Nc2ccc3c4c(cc(=O)n3C)-c3ccccc3C(=O)c24)cc1,IC50,[2],> 66 µM (inactive)
same,IC50,[3],59.4 µM (inactive)
O=C(c1cc2sccc2n1Cc1ccc(F)cc1)N1CCCc2ccccc21,EC50,[1],4.88 µM (active)
CC(=O)Oc1ccc(/C=C2/C(=O)N(c3ccccc3)N=C2C)cc1,IC50,Genome polyprotein,56 µM (active)
same,EC50,Protein RecA,2.72 µM (active)
same,AC50,[7],2.76 µM (active)
CCCCN(Cc1ccccc1)S(=O)(=O)c1cc(Br)cc2c1N(C(C)=O)C(C)C2 (stereo not drawn),EC50,[1],18.2 µM (active)
C[C@@H]1CCC2[C@](C)(CO)[C@@H](O)CC[C@]2(C)[C@@]12CC[C@@](CO)(CC(=O)O)O2 (stereo partly drawn),IC50,[2],> 66 µM (inactive)
same,IC50,[3],> 66 µM (inactive)
C=CCn1c2ccccc2c2c(C)c3cnccc3c(C)c21,GI50,P388/ADR,11.2 µM (inactive)
same,GI50,SN12K1,8.41 µM (inactive)
same,GI50,P388,3.34 µM (inactive)
COc1cc(/C=C(/C#N)C(N)=O)ccc1O,GI50,P388/ADR,> 100 µM (inactive)
same,GI50,SN12K1,> 100 µM (inactive)
same,GI50,P388,> 100 µM (inactive)
C=CC12CN(C)C3C4COC(CC41)C1(C(=O)Nc4ccccc41)C32 (stereo not drawn),GI50,P388/ADR,136 µM (inactive)
same,GI50,SN12K1,185 µM (inactive)
same,GI50,P388,63.1 µM (inactive)
CC1CCC2(C(=O)O)CCC3(C)C(=CCC4C5(C)CCC(O)C(C)(C)C5CCC43C)C2C1C (stereo not drawn),GI50,P388/ADR,2.1 µM (inactive)
same,GI50,SN12K1,4.12 µM (inactive)
same,GI50,P388,2.27 µM (inactive)
c1cc(-c2ccoc2)n2ccnc2c1,IC50,[2],> 66 µM (inactive)
same,IC50,[3],> 66 µM (inactive)
N/C(=N\O)N/N=C\c1c(O)cc(O)cc1O,GI50,P388/ADR,17.5 µM (inactive)
same,GI50,SN12K1,15.7 µM (inactive)
same,GI50,P388,> 44.4 µM (inactive)
CC1=C2C(O)C(C(C)C(=O)NCC(C)C)CCC2(C)C=CC1=O (stereo not drawn),GI50,P388/ADR,> 100 µM (inactive)
same,GI50,SN12K1,> 100 µM (inactive)
same,GI50,P388,> 100 µM (inactive)
Cc1[nH]c(=O)[nH]c(=O)c1/C=C/C(=O)NC(CO)C[S+]([O-])Cc1ccccc1 (stereo not drawn),GI50,P388/ADR,> 300 µM (inactive)
same,GI50,SN12K1,> 300 µM (inactive)
same,GI50,P388,> 179 µM (inactive)
O=C1c2ccccc2OCC1/C=N/O (stereo not drawn),GI50,SN12K1,40.5 µM (inactive)
same,GI50,P388,18.9 µM (inactive)
COc1cc(-c2ccc(/N=N/c3ccc4c(S(=O)(=O)O)cc(S(=O)(=O)O)c(N)c4c3O)c(OC)c2)ccc1/N=N/c1ccc2c(S(=O)(=O)O)cc(S(=O)(=O)O)c(N)c2c1O,GI50,P388/ADR,> 100 µM (inactive)
same,GI50,SN12K1,> 100 µM (inactive)
same,GI50,P388,> 100 µM (inactive)
CC1[C@@H]2CC=C3[C@H]4CCC5Cc6nc7c(nc6C[C@@]5(C)C4CC(=O)[C@]32CO[C@]12OC(C)(C)CC2O)CC1CC[C@@H]2C3=C[C@H]4O[C@@]5(O[C@@](C)(CO)C[C@@H]5O)C(C)[C@@]4(O)[C@]3(C)[C@@H](O)CC2[C@]1(C)C7 (stereo partly drawn),GI50,P388/ADR,0.00152 µM (active)
same,GI50,SN12K1,0.000365 µM (active)
same,GI50,P388,0.000365 µM (active)
